We go through 45 compounds from US9051342B2 (priority 2004, dated 2015).

Each structure is given as a SMILES string. Several values for one entry are separate records, joined by “and”; a condition that tells them apart may be missing. Equal values may be shown once. Where a name gives a salt, the structure may show the parent alone.

Broadly, the melting point is the temperature, or range, at which the solid turns liquid.

`CC(C)c1ccc(-n2cnc(-c3cccc(C(=O)O)c3)c2)cc1` had a melting point of 225 to 226 °C.

In the case of `COc1cccc(-n2cnc(-c3ccc(C(=O)O)cc3)n2)c1`, the melting point lay within 203 to 205 °C.

In the case of `O=C(O)c1cccc(-c2ccn(-c3ccc(C(F)(F)F)cc3)c2)c1` (as salt: sodium) [Compound 154, 3-[1-(4-Trifluoromethyl-phenyl)-]-1H-pyrrol-3-yl]-benzoic acid sodium salt], the melting point lay in the range of 224 to 226 °C.

Take `CC(C)c1ccc(-c2cn(-c3cccc(C(=O)O)c3)c(N)n2)cc1` [Compound 1, 3-[2-amino-4-(4-isopropylphenyl)-1H-imidazol-1-yl]benzoic acid]: the melting point was 279 to 282 °C (dec.).

On to `CC(C)c1ccc(-c2ccn(-c3cccc(C(=O)O)c3)n2)cc1` [Compound 5, 3-[3-(4-Isopropyl-phenyl)-pyrazol-1-yl]-benzoic acid], for which the melting point fell in the range of 215 to 216 °C.

On to `CC(C)c1ccc(-n2ccc(-c3cccc(C(=O)O)c3)c2)cc1` [Compound 6, 3-[1-(4-Isopropyl-phenyl)-1H-pyrrol-3-yl]-benzoic acid], for which the melting point was 210 to 215 °C.

Regarding `O=C(O)c1cccc(-n2cnc(-c3ccccc3)n2)c1` [Compound 8, 3-(3-Phenyl-[1,2,4]triazol-1-yl)-benzoic acid], the melting point lay within 268 to 271 °C.

`O=C(O)c1cccc(-n2cnc(-c3ccc(O)cc3)n2)c1` [Compound 9, 3-[3-(4-Hydroxy-phenyl)-[1,2,4]triazol-1-yl]-benzoic acid] came in with a melting point of 307 to 311 °C.

As to `O=C(O)c1cccc(-n2cnc(-c3ccc(OCc4ccccc4)cc3)n2)c1` [Compound 10, 3-[3-(4-Benzyloxy-phenyl)-[1,2,4]triazol-1-yl]-benzoic acid], the melting point fell in the range of 259 to 261 °C.

`COc1ccc(-c2ncn(-c3cccc(C(=O)O)c3)n2)cc1` [Compound 11, 3-[3-(4-Methoxy-phenyl)-[1,2,4]triazol-1-yl]-benzoic acid] returned a melting point of 268 to 270 °C.

Turning to `COc1ccc(-n2cnc(-c3cccc(C(=O)O)c3)n2)cc1` [Compound 12, 3-[1-(4-Methoxy-phenyl)-1H-[1,2,4]triazol-3-yl]-benzoic acid], the melting point lay in the range of 230 to 232 °C.

In turn, `O=C(O)c1cccc(-c2ncn(-c3ccc(F)cc3)n2)c1` [Compound 13, 3-[1-(4-Fluoro-phenyl)-1H-[1,2,4]triazol-3-yl]-benzoic acid] registered a melting point of over 310 °C.

Consider `Cc1ccc(-n2cnc(-c3cccc(C(=O)O)c3)n2)cc1` [Compound 14, 3-(1-p-Tolyl-1H-[1,2,4]triazol-3-yl)-benzoic acid], for which the melting point is 263 to 265 °C.

For `CC(C)c1ccc(-n2cnc(-c3cccc(C(=O)O)c3)n2)cc1` [Compound 15, 3-[1-(4-Isopropyl-phenyl)-1H-[1,2,4]triazol-3-yl]-benzoic acid], the melting point is 173 to 175 °C.

On to `O=C(O)c1cccc(-c2ncn(-c3ccc(F)cc3F)n2)c1` [Compound 16, 3-[1-(2,4-Difluoro-phenyl)-1H-[1,2,4]triazol-3-yl]-benzoic acid], for which the melting point is 290 to 291 °C and 290 to 292 °C.

With `O=C(O)c1cccc(-c2ncn(-c3ccccc3F)n2)c1` [Compound 17, 3-[1-(2-Fluoro-phenyl)-1H-[1,2,4]triazol-3-yl]-benzoic acid], the melting point lay in the range of 239 to 241 °C.

As for `O=C(O)c1cccc(-c2ncn(-c3ccc(C(F)(F)F)cc3)n2)c1` [Compound 18, 3-[1-(4-Trifluoromethyl-phenyl)-1H-[1,2,4]triazol-3-yl]-benzoic acid], the melting point was in the range of 141 to 143 °C.

As for `O=C(O)c1cccc(-c2ncn(-c3ccc(OC(F)(F)F)cc3)n2)c1` [Compound 19, 3-[1-(4-Trifluoromethoxy-phenyl)-1H-[1,2,4]triazol-3-yl]-benzoic acid], the melting point is 219 to 221 °C.

Consider `O=C(O)c1cccc(-c2ncn(-c3cc(C(F)(F)F)cc(C(F)(F)F)c3)n2)c1` [Compound 20, 3-[1-(3,5-Bis-trifluoromethyl-phenyl)-1H-[1,2,4]triazol-3-yl]-benzoic acid], for which the melting point was 271 to 273 °C.

For the compound `CCc1ccccc1-n1cnc(-c2cccc(C(=O)O)c2)n1` [Compound 21, 3-[1-(2-Ethyl-phenyl)-1H-[1,2,4]triazol-3-yl]-benzoic acid], the melting point lay in the range of 176 to 178 °C.

Compound `O=C(O)c1cccc(-c2ncn(-c3ccc(Br)cc3)n2)c1` [Compound 22, 3-[1-(4-Bromo-phenyl)-1H-[1,2,4]triazol-3-yl]-benzoic acid] returned a melting point of over 310 °C.

In turn, `O=C(O)c1cccc(-c2ncn(-c3ccc([N+](=O)[O-])cc3)n2)c1` [Compound 23, 3-[1-(4-Nitro-phenyl)-1H-[1,2,4]triazol-3-yl]-benzoic acid] came in with a melting point of 284 to 286 °C.

Compound `O=C(O)c1cccc(-c2ncn(-c3ccc(-c4ccccc4)cc3)n2)c1` [Compound 24, 3-(1-Biphenyl-4-yl-1H-[1,2,4]triazol-3-yl)-benzoic acid] gave a melting point of 263 to 265 °C.

As to `O=C(O)c1cccc(-c2ncn(-c3ccc(F)c(Cl)c3)n2)c1` [Compound 25, 3-[1-(3-Chloro-4-fluoro-phenyl)-1H-[1,2,4]triazol-3-yl]-benzoic acid], the melting point lay in the range of 270 to 272 °C.

Compound `O=C(O)c1cccc(-c2ncn(-c3ccc(-c4cc5ccccc5o4)cc3)n2)c1` [Compound 26, 3-[1-(4-Benzofuran-2-yl-phenyl)-1H-[1,2,4]triazol-3-yl]-benzoic acid] came in with a melting point of 293 to 295 °C.

With `COc1ccc(-c2ccc(-n3cnc(-c4cccc(C(=O)O)c4)n3)cc2)cc1` [Compound 27, 3-[1-(4′-Methoxy-biphenyl-4-yl)-1H-[1,2,4]triazol-3-yl]-benzoic acid], the melting point was 243 to 246 °C.

In turn, `CC(C)c1ccc(-c2ccc(-n3cnc(-c4cccc(C(=O)O)c4)n3)cc2)cc1` [Compound 28, 3-[1-(4′-Isopropyl-biphenyl-4-yl)-1H-[1,2,4]triazol-3-yl]-benzoic acid] gave a melting point of 225 to 228 °C.

Compound `O=C(O)c1cccc(-c2ncn(-c3cccc(F)c3)n2)c1` [Compound 29, 3-[1-(3-Fluoro-phenyl)-1H-[1,2,4]triazol-3-yl]-benzoic acid] displayed a melting point of 266 to 268 °C.

In turn, `O=C(O)c1cccc(-c2ncn(-c3ccccc3Br)n2)c1` [Compound 30, 3-[1-(2-Bromo-phenyl)-1H-[1,2,4]triazol-3-yl]-benzoic acid] came in with a melting point of 245 to 247 °C.

In turn, `O=C(O)c1ccc(-n2cnc(-c3cccc(C(=O)O)c3)n2)cc1` [Compound 31, 4-[3-(3-Carboxy-phenyl)-[1,2,4]triazol-1-yl]-benzoic acid] yielded a melting point of over 300 °C.

Take `O=C(O)c1cccc(-c2ncn(-c3ccc(-c4ccc(F)cc4)cc3)n2)c1` [Compound 32, 3-[1-(4′-Fluoro-biphenyl-4-yl)-1H-[1,2,4]triazol-3-yl]-benzoic acid]: the melting point lay within 272 to 275 °C.

With `Cc1nc(-c2cccc(C(=O)O)c2)nn1-c1ccc(Br)cc1` [Compound 33, 3-[1-(4-Bromo-phenyl)-5-methyl-1H-[1,2,4]triazol-3-yl]-benzoic acid], the melting point lay in the range of 295 to 298 °C.

As to `Cc1nc(-c2cccc(C(=O)O)c2)nn1-c1cccc(F)c1` [Compound 34, 3-[1-(3-Fluoro-phenyl)-5-methyl-1H-[1,2,4]triazol-3-yl]-benzoic acid], the melting point fell in the range of 236 to 238 °C.

The compound `O=C(O)c1cccc(-c2ncn(-c3cccc(Br)c3)n2)c1` [Compound 35, 3-[1-(3-Bromo-phenyl)-1H-[1,2,4]triazol-3-yl]-benzoic acid] showed a melting point of 253 to 255 °C.

`O=C(O)c1cccc(-c2ncn(-c3ccccn3)n2)c1` [Compound 36, 3-(1-Pyridin-2-yl-1H-[1,2,4]triazol-3-yl)-benzoic acid] gave a melting point of 241 to 244 °C.

Turning to `O=C(O)c1cccc(-c2ncn(-c3ccccc3)n2)c1` [Compound 37, 3-(1-Phenyl-1H-[1,2,4]triazol-3-yl)-benzoic acid], the melting point lay in the range of 257 to 259 °C.

`Cc1ccc(-n2cnc(-c3cccc(C(=O)O)c3)n2)cc1Cl` [Compound 38, 3-[1-(3-Chloro-4-methyl-phenyl)-1H-[1,2,4]triazol-3-yl]-benzoic acid] displayed a melting point of 269 to 272 °C.

In turn, `Cc1cccc(-n2cnc(-c3cccc(C(=O)O)c3)n2)c1` [Compound 39, 3-(1-m-Tolyl-1H-[1,2,4]triazol-3-yl)-benzoic acid] showed a melting point of 223 to 225 °C.

As for `Cc1ccccc1-n1cnc(-c2cccc(C(=O)O)c2)n1` [Compound 40, 3-(1-o-Tolyl-1H-[1,2,4]triazol-3-yl)-benzoic acid], the melting point was in the range of 209 to 211 °C.

`Cc1ccccc1-n1nc(-c2cccc(C(=O)O)c2)[nH]c1=O` [Compound 41, 3-(5-Oxo-1-o-tolyl-4,5-dihydro-1H-[1,2,4]triazol-3-yl)-benzoic acid] came in with a melting point of over 310 °C.

`O=C(O)c1cccc(-c2nn(-c3cccc(F)c3)c(=O)[nH]2)c1` [Compound 42, 3-[1-(3-Fluoro-phenyl)-5-oxo-4,5-dihydro-1H-[1,2,4]triazol-3-yl]-benzoic acid] yielded a melting point of over 310 °C.

`O=C(O)c1cccc(-c2ncn(-c3ccc(N4CCCC4=O)cc3)n2)c1` [Compound 43, 3-{1-[4-(2-Oxo-pyrrolidin-1-yl)-phenyl]-1H-[1,2,4]triazol-3-yl}-benzoic acid] had a melting point of 270 to 273 °C.

For `O=C(O)c1cccc(-c2ncn(-c3ccc(N4CCC4=O)cc3)n2)c1` [Compound 44, 3-{1-[4-(2-Oxo-azetidin-1-yl)-phenyl]-1H-[1,2,4]triazol-3-yl}-benzoic acid], the melting point lay within 295 to 297 °C.

The compound `COc1ccc(-c2cnn(-c3cccc(C(=O)O)c3)c2)cc1` [Compound 47, 3-[4-(4-Methoxy-phenyl)-pyrazol-1-yl]-benzoic acid] yielded a melting point of 238 to 239 °C.

The compound `Cc1ccc(-c2cnn(-c3cccc(C(=O)O)c3)c2)cc1` [Compound 48, 3-(4-p-Tolyl-pyrazol-1-yl)-benzoic acid] registered a melting point of 208 to 209 °C.
